Reference: ChEMBL document CHEMBL1201862, “PubChem BioAssay data set” (2004)
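Values below derive from 48-hour exposures of cells grown in 96-well plates, with endpoints linearly interpolated between the two concentrations bracketing the appropriate inhibition level. The concentration for 50% growth inhibition is given as GI50.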 Activity calls are given as the source filed them. No stated cut-off is given here; in the data, active = GI50 up to about 1.1 µM and inactive = higher.

Legend:
Experiment in all cases: DTP human tumour cell line panel, 48 h
[1] = tested on: NCI-H460
[2] = tested on: SF-295
[3] = tested on: A498
[4] = tested on: SK-MEL-28
[5] = tested on: IGROV-1
[6] = tested on: OVCAR-4
[7] = tested on: TK-10
[8] = tested on: KM12
[9] = tested on: NCI-H522
[10] = tested on: RXF 393
[11] = tested on: NCI-H226
[12] = tested on: MCF7
[13] = tested on: HCC 2998
[14] = tested on: DU-145
[15] = tested on: SNB-75
[16] = tested on: HOP-62
[17] = tested on: SR
[18] = tested on: BT-549
[19] = tested on: UACC-62
[20] = tested on: ACHN
[21] = tested on: U-251
[22] = tested on: LOX IMVI
[23] = tested on: M14
[24] = tested on: SF-268
[25] = tested on: MDA-MB-435
[26] = tested on: 786-0
[27] = tested on: SN12C
[28] = tested on: SK-MEL-5
[29] = tested on: HL-60
[30] = tested on: SNB-19
[31] = tested on: MDA-N
[32] = tested on: PC-3
[33] = tested on: MDA-MB-231
[34] = tested on: RPMI-8226
[35] = tested on: HCT-15
[36] = tested on: HCT-116
[37] = tested on: SF-539
[38] = tested on: SK-OV-3
[39] = tested on: EKVX
[40] = tested on: CCRF-CEM
[41] = tested on: T47D
[42] = tested on: HOP-92
[43] = tested on: UACC-257
[44] = tested on: NCI/ADR-RES
[45] = tested on: OVCAR-8
[46] = tested on: Malme-3M
[47] = tested on: SK-MEL-2
[48] = tested on: NCI-H23
[49] = tested on: CAKI-1
[50] = tested on: MOLT-4
[51] = tested on: COLO 205
[52] = tested on: HT-29
[53] = tested on: OVCAR-3
[54] = tested on: K562
[55] = tested on: OVCAR-5
[56] = tested on: SW-620
[57] = tested on: A549
[58] = tested on: UO-31
[59] = tested on: Hs-578T

c1cnc2c(c1)ccc1cccnc12
GI50 [1]: 2.74 µM (inactive) | GI50 [2]: 3.52 µM (inactive) | GI50 [3]: 12.6 µM (inactive) | GI50 [4]: 4.95 µM (inactive) | GI50 [5]: 4.26 µM (inactive) | GI50 [6]: 4.63 µM (inactive) | GI50 [7]: 3.88 µM (inactive) | GI50 [8]: 4.93 µM (inactive) | GI50 [9]: 5.86 µM (inactive) | GI50 [10]: 4.48 µM (inactive) | GI50 [11]: 2.05 µM (inactive) | GI50 [12]: 3.66 µM (inactive) | GI50 [13]: 6.7 µM (inactive) | GI50 [14]: 4.13 µM (inactive) | GI50 [15]: 13.6 µM (inactive) | GI50 [16]: 5.83 µM (inactive) | GI50 [17]: 1.02 µM (active) | GI50 [18]: 9.79 µM (inactive) | GI50 [19]: 3.81 µM (inactive) | GI50 [20]: 2.86 µM (inactive) | GI50 [21]: > 20.2 µM (inactive) | GI50 [22]: 3.61 µM (inactive) | GI50 [23]: 4.02 µM (inactive) | GI50 [24]: 4.07 µM (inactive) | GI50 [25]: 5.21 µM (inactive) | GI50 [26]: 3.78 µM (inactive) | GI50 [27]: 3.27 µM (inactive) | GI50 [28]: 2.62 µM (inactive) | GI50 [29]: 0.354 µM (active) | GI50 [30]: 8.57 µM (inactive) | GI50 [31]: 4.97 µM (inactive) | GI50 [32]: > 27.1 µM (inactive) | GI50 [33]: > 42.1 µM (inactive) | GI50 [34]: 2.67 µM (inactive) | GI50 [35]: 3.12 µM | GI50 [36]: 3.78 µM (inactive) | GI50 [37]: 3.72 µM (inactive) | GI50 [38]: 11.7 µM (inactive) | GI50 [39]: 3.91 µM (inactive) | GI50 [40]: 1.87 µM (inactive) | GI50 [41]: 4.92 µM (inactive) | GI50 [42]: 8.91 µM (inactive) | GI50 [43]: 3.78 µM (inactive) | GI50 [44]: 2.37 µM (inactive) | GI50 [45]: 4.36 µM (inactive) | GI50 [46]: 3.56 µM (inactive) | GI50 [47]: > 28.4 µM (inactive) | GI50 [48]: 5.12 µM (inactive) | GI50 [49]: 3.18 µM (inactive) | GI50 [50]: 2.86 µM (inactive) | GI50 [51]: 4.27 µM (inactive) | GI50 [52]: 4.55 µM (inactive) | GI50 [53]: 6.67 µM (inactive) | GI50 [54]: 3.67 µM (inactive) | GI50 [55]: 5.31 µM (inactive) | GI50 [56]: 8.69 µM (inactive) | GI50 [57]: 5.07 µM (inactive) | GI50 [58]: 2.3 µM (inactive) | GI50 [59]: > 36.3 µM (inactive)
